Source: patent publication US7932255B2, “2-aminocarbonyl substituted piperazine or diaza-cyclic compounds as apoptosis protein inhibitors (lap) modulators” (Novartis AG, priority 2006, dated 2011)

Each molecule was assayed against T1, XIAP (Homo sapiens, UniProt P98170) (assay: Disruption of the Smac peptide-(XIAP)BIR3 protein-protein interaction (Tables 2 and 3)). Conditions: Series A compounds, Table 2; read-out: XIAP IC50.
T1 construct: GST
Type: binding
Experimental: IC50 values for Series A compounds for XIAP. An assay capable of measuring disruption of the Smac peptide-(XIAP)BIR3 protein-protein interaction is established in the art as described in Example 2. In this assay IAP Inhibitor compounds compete with an immobilized Smac peptide for occupancy of the BIR3 binding pocket of XIAP. The rationale for this strategy results from the mutually exclusive nature of either Caspase 9 or Smac binding to the BIR3 pocket.
Assays are performed and IC50 values are calculated as follows: […]
IC50 values are calculated by logarithmic regression analysis of the percentage inhibition of each compound at 4 concentrations (usually 3- or 10-fold dilution series starting at 10 μM). In each experiment, the actual inhibition by reference compound is used for normalization of IC50 values to the basis of an average value of the reference inhibitor: Normalized IC50=measured IC50 average ref. IC50/measured ref. IC50
Activity determinations of compounds herein using the testing method described herein and as are well known in the art, are used with the following test compounds of formula (I). […] “Activity” as used herein is defined as having IC50 values for IAP target inhibition of less than 10 μM. Specifically, in the table:
IC50 values for Series B compounds are provided for XIAP. Assays are performed as described above using methods well known in the art.

T1 sequence (P98170 248-358 limits assumed, species assumed): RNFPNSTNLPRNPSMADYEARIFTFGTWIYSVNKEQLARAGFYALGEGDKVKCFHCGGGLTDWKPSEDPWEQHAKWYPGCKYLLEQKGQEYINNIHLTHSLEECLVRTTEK

IC50 [µM]	SMILES
< 10	CN[C@@H](C)C(=O)N[C@H](C(=O)N1CCN(Cc2ccc(C)cc2)C[C@H]1C(=O)NC1CCCc2ccccc21)C(C)C (stereo partly drawn) [Compound 51, (S)-4-(4-Methyl-benzyl)-1-[(S)-3-methyl-2-((S)-2-methylamino-propionylamino)-butyryl]-piperazine-2-carboxylic acid (1,2,3,4-tetrahydro-naphthalen-1-yl)-amide]
< 10	CN[C@@H](C)C(=O)N[C@H](C(=O)N1CCN(C(=O)c2ccc(F)cc2)C[C@H]1C(=O)NC1CCCc2ccccc21)C(C)C (stereo partly drawn) [Compound 17, (S)-4-(4-Fluoro-benzoyl)-1-[(S)-3-methyl-2-((S)-2-methylamino-propionylamino)-butyryl]-piperazine-2-carboxylic acid (1,2,3,4-tetrahydro-naphthalen-1-yl)-amide]
< 10	CN[C@@H](C)C(=O)N[C@H](C(=O)N1CCN(C(=O)c2ccc(NC(C)=O)cc2)C[C@H]1C(=O)NC1CCCc2ccccc21)C(C)C (stereo partly drawn) [Compound 27, (S)-4-(4-Acetylamino-benzoyl)-1-[(S)-3-methyl-2-((S)-2-methylamino-propionylamino)-butyryl]-piperazine-2-carboxylic acid (1,2,3,4-tetrahydro-naphthalen-1-yl)-amide]
< 10	CN[C@@H](C)C(=O)N[C@H](C(=O)N1CCN(CCc2ccccc2)C[C@H]1C(=O)NC1CCCc2ccccc21)C(C)C (stereo partly drawn) [Compound 46, (S)-1-[(S)-3-Methyl-2-((S)-2-methylamino-propionylamino)-butyryl]-4-phenethyl-piperazine-2-carboxylic acid (1,2,3,4-tetrahydro-naphthalen-1-yl)-amide]
< 10	CN[C@@H](C)C(=O)N[C@H](C(=O)N1CCN(Cc2cncs2)C[C@H]1C(=O)NC1CCCc2ccccc21)C(C)C (stereo partly drawn) [Compound 22, (S)-1-[(S)-3-Methyl-2-((S)-2-methylamino-propionylamino)-butyryl]-4-thiazol-5-ylmethyl-piperazine-2-carboxylic acid (1,2,3,4-tetrahydro-naphthalen-1-yl)-amide]
< 10	CN[C@@H](C)C(=O)N[C@H](C(=O)N1CCN(Cc2ccccc2)C[C@H]1C(=O)NC1CCCc2ccccc21)C(C)C (stereo partly drawn) [Compound 53, (S)-4-Benzyl-1-[(S)-3-methyl-2-((S)-2-methylamino-propionylamino)-butyryl]-piperazine-2-carboxylic acid (1,2,3,4-tetrahydro-naphthalen-1-yl)-amide]
< 10	CN[C@@H](C)C(=O)N[C@H](C(=O)N1CCNC[C@H]1C(=O)NC1CCCc2ccccc21)C(C)C (stereo partly drawn) [Compound 56, (S)-1-[(S)-3-Methyl-2-((S)-2-methylamino-propionylamino)-butyryl]-piperazine-2-carboxylic acid (1,2,3,4-tetrahydro-naphthalen-1-yl)-amide]
< 10	CN[C@@H](C)C(=O)N[C@H](C(=O)N1CCN(Cc2ccc(OC)cc2)C[C@H]1C(=O)NC1CCCc2ccccc21)C(C)C (stereo partly drawn) [Compound 6, (S)-4-(4-Methoxy-benzyl)-1-[(S)-3-methyl-2-((S)-2-methylamino-propionylamino)-butyryl]-piperazine-2-carboxylic acid (1,2,3,4-tetrahydro-naphthalen-1-yl)-amide]
< 10	CN[C@@H](C)C(=O)N[C@H](C(=O)N1CCN(Cc2ccccc2OC)C[C@H]1C(=O)NC1CCCc2ccccc21)C(C)C (stereo partly drawn) [Compound 37, (S)-4-(2-Methoxy-benzyl)-1-[(S)-3-methyl-2-((S)-2-methylamino-propionylamino)-butyryl]-piperazine-2-carboxylic acid (1,2,3,4-tetrahydro-naphthalen-1-yl)-amide]
< 10	CN[C@@H](C)C(=O)N[C@H](C(=O)N1CCN(Cc2ccc(C#N)cc2)C[C@H]1C(=O)NC1CCCc2ccccc21)C(C)C (stereo partly drawn) [Compound 43, (S)-4-(4-Cyano-benzyl)-1-[(S)-3-methyl-2-((S)-2-methylamino-propionylamino)-butyryl]-piperazine-2-carboxylic acid (1,2,3,4-tetrahydro-naphthalen-1-yl)-amide]
< 10	CN[C@@H](C)C(=O)N[C@H](C(=O)N1CCN(S(=O)(=O)CCC(F)(F)F)C[C@H]1C(=O)NC1CCCc2ccccc21)C(C)C (stereo partly drawn) [Compound 26, (S)-1-[(S)-3-Methyl-2-((S)-2-methylamino-propionylamino)-butyryl]-4-(3,3,3-trifluoro-propane-1-sulfonyl)-piperazine-2-carboxylic acid (1,2,3,4-tetrahydro-naphthalen-1-yl)-amide]
< 10	CN[C@@H](C)C(=O)N[C@H](C(=O)N1CCN(C(=O)OCc2ccccc2)C[C@H]1C(=O)NC1CCCc2ccccc21)C(C)C (stereo partly drawn) [Compound 13, (S)-4-[(S)-3-Methyl-2-((S)-2-methylamino-propionylamino)-butyryl]-3-(1,2,3,4-tetrahydro-naphthalen-1-ylcarbamoyl)-piperazine-1-carboxylic acid benzyl ester]

Same assay, conditions: Series B compounds, Table 3; read-out: XIXP IC50

IC50 [µM]	SMILES
> 10	CN[C@@H](C)C(=O)N[C@H](C(=O)N1CCN(Cc2ccccc2)C[C@H]1C(=O)NCCCc1ccccc1)C(C)C [Compound 72, (S)-4-Benzyl-1-[(S)-3-methyl-2-((S)-2-methylamino-propionylamino)-butyryl]-piperazine-2-carboxylic acid (3-phenyl-propyl)-amide]
< 10	CN[C@@H](C)C(=O)N[C@H](C(=O)N1CCN(Cc2ccccc2)C[C@H]1C(=O)NC1CCc2ccccc2C1)C(C)C (stereo partly drawn) [Compound 68, (S)-4-Benzyl-1-[(S)-3-methyl-2-((S)-2-methylamino-propionylamino)-butyryl]-piperazine-2-carboxylic acid (1,2,3,4-tetrahydro-naphthalen-2-yl)-amide]
< 10	CN[C@@H](C)C(=O)N[C@H](C(=O)N1CCN(Cc2ccccc2)C[C@H]1C(=O)NC(Cc1ccccc1)Cc1ccccc1)C(C)C [Compound 80, (S)-4-Benzyl-1-[(S)-3-methyl-2-((S)-2-methylamino-propionylamino)-butyryl]-piperazine-2-carboxylic acid (1-benzyl-2-phenyl-ethyl)-amide]
< 10	CN[C@@H](C)C(=O)N[C@H](C(=O)N1CCN(Cc2ccccc2)C[C@H]1C(=O)NC(c1ccccc1)c1ccccc1)C(C)C [Compound 64, (S)-4-Benzyl-1-[(S)-3-methyl-2-((S)-2-methylamino-propionylamino)-butyryl]-piperazine-2-carboxylic acid benzhydryl-amide]
< 10	CN[C@@H](C)C(=O)N[C@H](C(=O)N1CCN(Cc2ccccc2)C[C@H]1C(=O)N1Cc2ccccc2C1)C(C)C [Compound 85, (S)-N-{(S)-1-[(S)-4-Benzyl-2-(1,3-dihydro-isoindole-2-carbonyl)-piperazine-1-carbonyl]-2-methyl-propyl}-2-methylamino-propionamide]
> 10	CN[C@@H](C)C(=O)N[C@H](C(=O)N1CCN(Cc2ccccc2)C[C@H]1C(=O)NCC1CCCCCC1)C(C)C [Compound 77, (S)-4-Benzyl-1-[(S)-3-methyl-2-((S)-2-methylamino-propionylamino)-butyryl]-piperazine-2-carboxylic acid cycloheptylmethyl-amide]
< 10	CN[C@@H](C)C(=O)N[C@H](C(=O)N1CCN(Cc2ccccc2)C[C@H]1C(=O)NC1c2ccccc2-c2ccccc21)C(C)C [Compound 75, (S)-4-Benzyl-1-[(S)-3-methyl-2-((S)-2-methylamino-propionylamino)-butyryl]-piperazine-2-carboxylic acid (9H-fluoren-9-yl)-amide]
